Among the data in US12060347B2 (BRISTOL-MYERS SQUIBB COMPANY, priority 2016, dated 2024) are IC50 values, retold here.

In this test the target is T1, human PAR4 (Homo sapiens, UniProt Q96RI0).
T1 construct: expressed in transfected cells; host or cells: HEK293 PAR4 Clone 1.2A (BMS Arctic ID 383940)
T1 sequence (Q96RI0 18-385): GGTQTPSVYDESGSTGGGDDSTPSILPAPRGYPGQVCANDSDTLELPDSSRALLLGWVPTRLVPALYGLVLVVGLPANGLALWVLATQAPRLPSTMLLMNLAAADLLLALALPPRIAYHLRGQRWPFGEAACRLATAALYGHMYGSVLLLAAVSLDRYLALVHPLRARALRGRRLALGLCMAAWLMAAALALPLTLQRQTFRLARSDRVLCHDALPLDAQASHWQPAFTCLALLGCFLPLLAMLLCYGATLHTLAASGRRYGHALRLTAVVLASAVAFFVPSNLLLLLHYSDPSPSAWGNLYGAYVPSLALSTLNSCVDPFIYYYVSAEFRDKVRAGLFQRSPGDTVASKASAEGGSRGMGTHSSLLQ
The test can be described thus: PAR4 FLIPR assay: antagonism of agonist-peptide-induced calcium mobilization in PAR4-expressing HEK293 cells. To be noted: H-Ala-Phe(4-F)-[…]NH2-induced intracellular calcium mobilization, 11-point curves. It is filed as cell-based.

`COc1cnc2c(-c3nc4c(C)cc(OC[C@@H](C)OC(=O)Nc5cccnc5)nc4s3)cc(C)cc2n1` [Example 733, (R)-1-((2-(2-methoxy-7-methylquinoxalin-5-yl)-7-methylthiazolo[5,4-b]pyridin-5-yl)oxy)propan-2-yl pyridin-3-ylcarbamate]: the IC50 came out at 1.1 nM.

On to `COCc1cnc2c(-c3nc4c(C)cc(OC(F)F)cc4s3)cc(C)cc2n1` [Example 263, 6-(difluoromethoxy)-2-(2-(methoxymethyl)-7-methylquinoxalin-5-yl)-4-methylbenzo[d]thiazole], for which the IC50 turned out to be 0.8 nM. On to `COc1cnc2c(-c3nc4cc(F)c(O[C@@H](C)[C@@H](C)OC(=O)Nc5cnc(C(=O)NC[C@H](C)O)nc5)cc4s3)cc(C)cc2n1` [Example 462, (2R,3S)-3-((5-fluoro-2-(2-methoxy-7-methylquinoxalin-5-yl)benzo[d]thiazol-6-yl)oxy)butan-2-yl (2-(((S)-2-hydroxypropyl)carbamoyl)pyrimidin-5-yl)carbamate], for which the 50% inhibitory concentration (IC50) worked out at 0.2 nM. Under `COc1cnc2c(-c3nc4cc(F)c(OC[C@@H](C)OC(=O)Nc5ccc(C(=O)N6CCOCC6)nc5)cc4s3)cc(C)cc2n1` [Example 435, (R)-1-((5-fluoro-2-(2-methoxy-7-methylquinoxalin-5-yl)benzo[d]thiazol-6-yl)oxy)propan-2-yl (6-(morpholine-4-carbonyl)pyridin-3-yl)carbamate] stands 0.9 nM; under `COCc1cnc2c(-c3cc4ccccc4o3)cc(C)cc2n1` [Example 195, 5-(benzofuran-2-yl)-2-(methoxymethyl)-7-methylquinoxaline], 32 nM. The same measure for `COc1cnc2c(-c3nc4cc(F)c(OC[C@@H](C)OC(=O)Nc5ccc(C(C)(C)O)nc5)cc4s3)cc(C)cc2n1` [Example 498, (R)-1-((5-fluoro-2-(2-methoxy-7-methylquinoxalin-5-yl)benzo[d]thiazol-6-yl)oxy)propan-2-yl (6-(2-hydroxypropan-2-yl)pyridin-3-yl)carbamate]: 1.3 nM; for `COc1cnc2c(-c3nc4cc(F)c(O[C@@H](C)[C@@H](C)OC(=O)Nc5ccnc(OCCC(C)(C)O)c5)cc4s3)cc(C)cc2n1` [Example 563, (2R,3S)-3-((5-fluoro-2-(2-methoxy-7-methylquinoxalin-5-yl)benzo[d]thiazol-6-yl)oxy)butan-2-yl (2-(3-hydroxy-3-methylbutoxy)pyridin-4-yl)carbamate]: 2.8 nM.

`Cc1cc(-c2nc3cc(F)c(O[C@@H](C)[C@@H](C)OC(=O)Nc4cnc(C)nc4)cc3s2)c2ncc(OC(F)F)cc2c1` [Example 659, (2R,3S)-3((2-(3-(difluoromethoxy)-6-methylquinolin-8-yl)-5-fluorobenzo[d]thiazol-6-yl)oxy)butan-2-yl (2-methylpyrimidin-5-yl)carbamate]: the IC50 was 2.1 nM. Regarding `COc1cnc2c(-c3nc4cc(F)c(OC)cc4s3)cc(C)cc2n1` [Example 280, 5-fluoro-6-methoxy-2-(2-methoxy-7-methylquinoxalin-5-yl)benzo[d]thiazole], the IC50 is 4.3 nM. Under `COc1cncc2nc(-c3cc(C)cc4nc(OC(F)F)cnc34)sc12` [Example 24, 2-(2-(difluoromethoxy)-7-methylquinoxalin-5-yl)-7-methoxythiazolo[4,5-c]pyridine] stands 2 nM; under `COc1cc(C(F)C(C)(C)C)c2nc(-c3cc(C)cc4nc(OC)cnc34)sc2c1` (stereo not shown) [Example 634, 4-(1-fluoro-2,2-dimethylpropyl)-6-methoxy-2-(2-methoxy-7-methylquinoxalin-5-yl)benzo[d]thiazole], 44 nM. In the case of `Cc1cc(-c2nc3cc(F)c(O[C@@H](C)[C@@H](C)OC(=O)Nc4cnc(C)nc4)cc3s2)c2ncc(OCCO)nc2c1` [Example 493, (2R,3S)-3-((5-fluoro-2-(2-(2-hydroxyethoxy)-7-methylquinoxalin-5-yl)benzo[d]thiazol-6-yl)oxy)butan-2-yl (2-methylpyrimidin-5-yl)carbamate], the IC50 came to 21 nM. For the molecule `COc1cnc2c(-c3nc4cc(F)c(O[C@@H](C)[C@@H](C)OC(=O)Nc5ccc(N(C)C)nc5)cc4s3)cc(C)cc2n1` [Example 599, (2R,3S)-3-((5-fluoro-2-(2-methoxy-7-methylquinoxalin-5-yl)benzo[d]thiazol-6-yl)oxy)butan-2-yl (6-(dimethylamino)pyridin-3-yl)carbamate], the IC50 is 5.6 nM. The same measure for `COc1cc(C(O)C(F)(F)F)c2nc(-c3cc(C)cc4nc(OC)cnc34)sc2c1` (single isomer, unassigned) [Example 633, 2,2,2-trifluoro-1-(6-methoxy-2-(2-methoxy-7-methylquinoxalin-5-yl)benzo[d]thiazol-4-yl)ethanol]: 2.6 nM. The same measure for `COc1cnc2c(-c3nc4cc(F)c(OC[C@@H](C)OC(=O)Nc5cnc(C(N)=O)nc5)cc4s3)cc(C)cc2n1` [Example 429, (R)-1-((5-fluoro-2-(2-methoxy-7-methylquinoxalin-5-yl)benzo[d]thiazol-6-yl)oxy)propan-2-yl (2-carbamoylpyrimidin-5-yl)carbamate]: 0.5 nM.

Turning to `Cc1cc(-c2nc3c(F)cc(OCCNS(=O)(=O)c4ccccc4)cc3s2)c2ncc(OC(F)F)nc2c1` [Example 67, N-(2-(2-(2-(difluoromethoxy)-7-methylquinoxalin-5-yl)-4-fluorobenzo[d]thiazol-6-yloxy)ethyl)benzenesulfonamide], the IC50 worked out at 2.9 nM.

In the case of `Cc1cc(-c2nc3c(C)cc(OCCNS(=O)(=O)c4ccc(F)cc4)cc3s2)c2ncc(C3CC3)nc2c1` [Example 91, N-(2-(2-(2-cyclopropyl-7-methylquinoxalin-5-yl)-4-methylbenzo[d]thiazol-6-yloxy)ethyl)-4-fluorobenzenesulfonamide], the IC50 was found to be 62 nM. The same measure for `Cc1ncc(NC(=O)O[C@H](C)[C@H](C)Oc2cc3sc(-c4cc(Cl)cc5cc(OCC(F)F)cnc45)nc3cc2F)cn1` [Example 651, (2R,3S)-3-((2-(6-chloro-3-(2,2-difluoroethoxy)quinolin-8-yl)-5-fluorobenzo[d]thiazol-6-yl)oxy)butan-2-yl (2-methylpyrimidin-5-yl)carbamate]: 4.3 nM; for `COCc1cnc2c(-c3nc4c(C(C)(C)O)cc(OC)cc4s3)cc(C)cc2n1` [Example 157, 2-(6-methoxy-2-(2-(methoxymethyl)-7-methylquinoxalin-5-yl)benzo[d]thiazol-4-yl) propan-2-ol]: 31 nM; for `COc1cnc2c(-c3nc4c(Cl)c(F)c(OCCOC(=O)Nc5ccc(-n6cnc(C)n6)nc5)cc4s3)cc(C)cc2n1` [Example 338, 2((4-chloro-5-fluoro-2-(2-methoxy-7-methylquinoxalin-5-yl)benzo[d]thiazol-6-yl)oxy)ethyl (6-(3-methyl-1H-1,2,4-triazol-1-yl)pyridin-3-yl)carbamate]: 2 nM. The same measure for `COc1cnc2c(-c3nc4c(C)cc(OC)nc4s3)cc(CO)cc2n1` [Example 223, (3-methoxy-8-(5-methoxy-7-methylthiazolo[5,4-b]pyridin-2-yl)quinoxalin-6-yl)methanol]: 10 nM; for `COCc1cccc2nc(-c3cc(C)cc4nc(OC(F)F)cnc34)sc12` [Example 65, 2-(2-(difluoromethoxy)-7-methylquinoxalin-5-yl)-7-(methoxymethyl)benzo[d]thiazole]: 31 nM.
